Source: patent US6479487B1, “6, 9-disubstituted 2-[trans-(4-aminocyclohexyl)amino] purines” (Aventis Pharmaceuticals Inc., priority 1998, dated 2002)
pIC50: −log10 of the molar value. Values joined by “and” are separate entries in the source; they are usually repeats but may differ in a detail not shown here. Equal values may be shown once. Where a name gives a salt, the structure may show the parent alone. Read-outs that look alike come from different tables or passages of the source.

Experiments:
A549 = experiment: In vitro tumor cell proliferation, A549; assay type: cell-based, human; details: many values given with an undefined *, read-out: In vitro Tumor Cell Proliferation (IC50, μM) Lung A549
Outline: (§1)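 Cells seeded overnight at 37° C, then exposed to drug diluted in medium; at 3 days medium and drug replenished for another 4 days. Growth read by sulforhodamine B staining after TCA fixation; alternatively by CyQUANT, with plates frozen at −80° C after 3 days of drug.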

Colo-205 = experiment: In vitro tumor cell proliferation, Colo-205; assay type: cell-based; details: values given with an undefined *, read-out: In vitro Tumor Cell Proliferation (IC50, μM) Colon Colo-205
Outline: as §1

DU145 = experiment: In vitro tumor cell proliferation, DU145; assay type: cell-based, human; details: many values given with an undefined *, read-out: In vitro Tumor Cell Proliferation (IC50, μM) Prostate DU145
Outline: as §1

MDA-MB-435 = experiment: In vitro tumor cell proliferation, MDA-MB-435; assay type: cell-based; details: values given with an undefined *, read-out: In vitro Tumor Cell Proliferation (IC50, μM) Breast MDA-MB-435
Outline: as §1

HT-29 = experiment: In vitro tumor cell proliferation, HT-29; assay type: cell-based, human; details: many values given with an undefined *, read-out: In vitro Tumor Cell Proliferation (IC50, μM) Colon HT-29
Outline: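 HT-29 cells seeded overnight at 37° C, then exposed to drug for 3 days, refed with fresh drug-containing medium for 4 more days. Proliferation read by sulforhodamine B staining after TCA fixation; alternatively by CyQUANT after freezing plates at −80° C following 3 days' drug exposure.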

PC-3 = experiment: In vitro tumor cell proliferation, PC-3; assay type: cell-based, human; details: many values given with an undefined *, read-out: In vitro Tumor Cell Proliferation (IC50, μM) Prostate PC-3
Outline: as §1

MDA-MB-231 = experiment: In vitro tumor cell proliferation, MDA-MB-231; assay type: cell-based, human; details: sulforhodamine B or CyQUANT assay, many values given with an undefined *, read-out: In vitro Tumor Cell Proliferation (IC50, μM) Breast MDA-MB-231
Outline: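 Cells plated overnight at 37 °C, then exposed to drug for 3 days, refed with fresh drug and incubated 4 more days. Read-out by sulforhodamine B staining after TCA fixation; alternatively, CyQUANT after 3-day drug exposure and freezing at −80 °C.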

DMS-114 = experiment: In vitro tumor cell proliferation, DMS-114; assay type: cell-based, human; details: many values given with an undefined *, read-out: In vitro Tumor Cell Proliferation (IC50, μM) Lung DMS-114
Outline: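 Human small cell lung carcinoma DMS-114 cells plated overnight, then drug-treated for 3 days, medium and drug renewed, and incubated 4 more days. Growth read by sulforhodamine B staining after TCA fixation; alternatively by CyQUANT after 3 days' drug exposure and freezing at −80 °C.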

cdk4/cyclin D1 = target: T1, cdk4/cyclin D1 (Homo sapiens, UniProt P11802); experiment: Cyclin-dependent Kinase 4 Assay (cdk4/cyclin D1, GST-Rb substrate); assay type: biochemical; details: cdk4/cyclin D1 insect cell lysate, 10 μM ATP, 30 min at 37° C., several values = separate determinations, read-out: CDK4 Inhibition IC50
T1 construct: made in house; host or cells: Sf9 insect cells (Bac-to-Bac baculovirus, pFastBac)
Outline: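 Insect-cell lysate of coexpressed cdk4/cyclin D1 (0.1 μg) acts on GST-Rb (0.5 μg) bound to glutathione-Sepharose, in 50 mM HEPES pH 7.5, 10 mM MgCl2, 1 mM EGTA. Reaction runs 30 min at 37 °C, then is stopped by filtration and TNEN washes. Rb phosphorylation read by scintillation counting; IC50 derived.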

cdk2/cyclin E = target: T2, cdk2/cyclin E (Homo sapiens, UniProt P24941); experiment: Cyclin-Dependent Kinase 2 Assay (cdk2/cyclin E, GST-Rb substrate); assay type: biochemical; details: recombinant cdk2/cyclin E, 10 μM ATP, 30 min at 30° C., several values in a cell = separate determinations, read-out: CDK-2 Inhibition IC50
T2 construct: made in house; host or cells: insect cells (baculovirus co-infection)
Experimental: Substrate: GST-Rb as described above for cdk4/cyclin D1
Assay conditions for cdk2/cyclin E were identical to those for cdk4/cyclin D1 including the substrate. The concentration of recombinant cdk2/cyclin E in the assay was 0.1 μg per 100 μl assay. Incubation was for 30 min at 30° C.

[1] = Homo sapiens, MDA-MB-435, MDA-MB-435
[2] = Homo sapiens, MDA-MB-231, MDA-MB-231
[3] = Homo sapiens, COLO 205, Colo-205

T1 sequence (P11802 whole entry): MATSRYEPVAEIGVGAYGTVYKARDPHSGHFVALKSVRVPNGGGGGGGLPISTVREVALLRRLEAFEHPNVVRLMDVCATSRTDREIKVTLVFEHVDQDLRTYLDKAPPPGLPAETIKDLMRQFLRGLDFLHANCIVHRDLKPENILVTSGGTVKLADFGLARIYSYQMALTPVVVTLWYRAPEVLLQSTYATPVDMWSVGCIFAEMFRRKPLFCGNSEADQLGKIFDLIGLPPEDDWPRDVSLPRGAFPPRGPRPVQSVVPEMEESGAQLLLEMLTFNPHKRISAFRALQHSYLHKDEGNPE
T1 sequence (P24385 whole entry partner): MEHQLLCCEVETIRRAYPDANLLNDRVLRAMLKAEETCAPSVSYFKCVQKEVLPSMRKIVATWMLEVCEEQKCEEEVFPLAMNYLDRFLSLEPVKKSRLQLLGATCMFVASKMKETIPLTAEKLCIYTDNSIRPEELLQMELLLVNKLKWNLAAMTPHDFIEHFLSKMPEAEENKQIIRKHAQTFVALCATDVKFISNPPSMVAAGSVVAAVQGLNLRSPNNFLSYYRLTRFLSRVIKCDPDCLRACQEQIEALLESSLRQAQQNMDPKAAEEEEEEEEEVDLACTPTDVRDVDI

Structure (SMILES)	IC50 (A549; A549, trihydrochloride)	IC50 (A549; Homo sapiens, A549, A549) [µM]	IC50 (Colo-205; Colo-205, trihydrochloride)	IC50 (DU145; DU145, trihydrochloride)	IC50 (DU145; Homo sapiens, DU-145, DU145) [µM]	IC50 (MDA-MB-435; [1]) [µM]	IC50 (MDA-MB-435; MDA-MB-435, trihydrochloride)	IC50 (HT-29; HT-29, trihydrochloride)	IC50 (HT-29; Homo sapiens, HT-29, HT-29) [µM]	IC50 (PC-3; Homo sapiens, PC-3, PC-3) [µM]	IC50 (PC-3; PC-3, trihydrochloride)	IC50 (MDA-MB-231; [2]) [µM]	IC50 (DMS-114; DMS-114, trihydrochloride)	IC50 (DMS-114; Homo sapiens, DMS-114, DMS-114) [µM]	pIC50 (cdk4/cyclin D1)	pIC50 (cdk2/cyclin E)	IC50 (Colo-205; [3]) [µM]	IC50 (MDA-MB-231; MDA-MB-231, trihydrochloride)	pIC50 (cdk4/cyclin D1; trihydrochloride)	pIC50 (cdk2/cyclin E; trihydrochloride)
N[C@H]1CC[C@H](Nc2nc(NC3CCN(Cc4ccc(F)cc4Cl)CC3)c3ncn(C4CCCC4)c3n2)CC1 [Example 147-t, 2-[Trans-(4-aminocyclohexyl)amino]-6-[4-[1-(2-chloro-4-fluorobenzyl)]piperidinylamino]-9-cyclopentylpurine trihydrochloride]	0.28 µM	0.3	0.36 µM	0.38 µM	0.33	0.41	0.69 µM	0.48 µM	0.42	0.37	0.45 µM	0.37	0.46 µM	0.71	5.66 and 5.77	6.60 and 6.80 and 6.47				
N[C@H]1CC[C@H](Nc2nc(NC3CCN(Cc4ccc(F)c(F)c4)CC3)c3ncn(C4CCCC4)c3n2)CC1 [Example 147-u, 2-[Trans-(4-aminocyclohexyl)amino]-6-[4-[1-(3,4-difluorobenzyl)]piperidinylamino]-9-cyclopentylpurine trihydrochloride]	0.19 µM	0.27	0.22 µM	0.28 µM	0.38	0.47	0.48 µM	0.33 µM	0.41	0.35	0.43 µM	0.33	0.35 µM	0.62	5.55 and 5.59	6.82 and 6.96	0.28	0.36 µM		
N[C@H]1CC[C@H](Nc2nc(NC3CCN(Cc4c(F)cccc4F)CC3)c3ncn(C4CCCC4)c3n2)CC1 [Example 147-v, 2-[Trans-(4-aminocyclohexyl)amino]-6-[4-[1-(2,6-difluorobenzyl)]piperidinylamino]-9-cyclopentylpurine trihydrochloride]	0.63 µM	0.5	0.77 µM	0.57 µM	0.52	1	1.3 µM	0.83 µM	0.76	0.85	1.1 µM	0.63	1.1 µM	1.9	5.70 and 5.47	6.62	0.58	1.2 µM		
N[C@H]1CC[C@H](Nc2nc(NC3CCN(Cc4cc(Cl)cc(Cl)c4)CC3)c3ncn(C4CCCC4)c3n2)CC1 [Example 147-w, 2-[Trans-(4-aminocyclohexyl)amino]-6-[4-[1-(3,5-dichlorobenzyl)]piperidinylamino]-9-cyclopentylpurine trihydrochloride]		0.21		0.39 µM	0.35	0.57	0.51 µM	0.39 µM	0.37	0.44	0.46 µM	0.35		0.45	5.40 and 5.68	6.89 and 6.74	0.32	0.4 µM		
N[C@H]1CC[C@H](Nc2nc(NC3CCN(Cc4ccc(Cl)cc4Cl)CC3)c3ncn(C4CCCC4)c3n2)CC1 [Example 147-x, 2-[Trans-(4-aminocyclohexyl)amino]-6-[4-[1-(2,4-dichlorobenzyl)]piperidinylamino]-9-cyclopentylpurine trihydrochloride]	0.45 µM	0.44	0.62 µM	0.53 µM	0.49	0.75	0.92 µM	0.6 µM	0.72	0.54	0.65 µM	0.85	0.7 µM	1	5.42 and 5.41	6.49	0.59	0.67 µM		
Cc1ccc(CN2CCC(Nc3nc(N[C@H]4CC[C@H](N)CC4)nc4c3ncn4C3CCCC3)CC2)cc1Cl [Example 147-y, 2-[Trans-(4-aminocyclohexyl)amino]-6-[4-[1-(3-chloro-4-methylbenzyl)]piperidinylamino]-9-cyclopentylpurine trihydrochloride]	0.16 µM and 0.29 µM		0.32 µM and 0.35 µM	0.33 µM and 0.35 µM			0.47 µM and 0.55 µM	0.41 µM and 0.38 µM			0.35 µM and 0.46 µM		0.4 µM and 0.45 µM					0.34 µM and 0.35 µM	5.27 and 5.32	6.29 and 6.17
N[C@H]1CC[C@H](Nc2nc(NC3CCN(Cc4ccc(OC(F)(F)F)cc4)CC3)c3ncn(C4CCCC4)c3n2)CC1 [Example 147-z, 2-[Trans-(4-aminocyclohexyl)amino]-6-[4-[1-(4-trifluoromethoxybenzyl)]piperidinylamino]-9-cyclopentylpurine trihydrochloride]	0.18 µM and 0.3 µM		0.38 µM and 0.46 µM	0.28 µM and 0.36 µM			0.5 µM and 0.57 µM	0.43 µM and 0.44 µM			0.33 µM and 0.44 µM		0.34 µM and 0.42 µM					0.37 µM and 0.35 µM	5.10 and 5.24	6.14 and 6.00
